# How the values were obtained:
# [1] = pH-potentiometric titration, Fe3+ complex; format: physicochemical; details: 310 K, I=0.1 M NaCl
# Experimental: The aqueous solutions thermodynamics of BBG and its corresponding complexes of Fe^3+, Cu^2+, and Zn^2+ were interrogated through pH-potentiometric titration of BBG (L) in the absence and presence of 1 molar equivalent of Fe^3+, Cu^2+, or Zn^2+, FIG. 13A.
# pH-potentiometric measurements were performed using an Orion ROSS Ultra pH electrode and temperature-controlled reaction vessel held at 310 K. A standardized solution of 0.10 M NaOH was used as the titrant. The electrode was calibrated prior to each titration by titrating a standardized HCl(aq) solution at ionic strength 0.10 using NaCl as the inert electrolyte with the standardized NaOH titrant. A working slope and intercept were generated by plotting mV as a function of calculated pH, which enabled direct conversion of electrode readings to [H^+] during sample titrations. pH values recorded during the titrations refers to hydrogen ion concentration. All titration samples were prepared in solutions of 0.10 M NaCl in distilled, deionized water. Ligand solutions were prepared by dissolving a weighed quantity into water and concentration was determined from the effective weight of the ligand and confirmed by the quantity of NaOH required to consume 1 molar equivalent of ligand proton. […]
# Tmprss6 knockout mice = assay: Tolerability after repeat dosing (clinical chemistry, liver qPCR); format: in vivo, mouse
# Experimental: Tmprss6 knockout mice received 29 intraperitoneal injections each containing 25 μg Fe as Fe-BBG (1.3±0.18 μg Fe per gram body weight, N=5 mice, 2 male, 3 female) or containing saline (placebo, N=5 mice, 2 male, 3 female) over 15 days. The cumulative dose of Fe was 725 μg Fe (37±0.53 μg Fe per gram body weight). The mice were euthanized 120 min after the final injection. Blood was harvested for measurement of complete blood counts, and nonheme Fe parameters. Bone marrow and liver tissue were analyzed by qPCR for expression of genes related to erythropoietic activity, Fe exposure, oxidative stress, and inflammation, the data are tabulated in FIG. 15. Clinical chemistry was also recorded, see Example 16 below. FIG. 15 data are shown as mean±standard deviation. Statistical differences between groups were determined by two-tailed Student's t-test for normally distributed values or Mann-Whitney (/test for non-normally distributed values. Significant differences are indicated by *P<0.05, **P<0.01, ****P<0.0001.
# FIG. 16 data are shown as mean±standard deviation. Statistical differences between groups were determined by two-tailed Student's t-test for normally distributed values or Mann-Whitney U test for non-normally distributed values. Significant differences are indicated by *P<0.05, **P<0.01, ***P<0.001, ****P<0.0001.
# [2] = Stability of Fe-BBG against trans-chelation by endogenous chelators (UV-vis); format: physicochemical
# Excerpt: In other words, the ligand BBG binds to Fe^3+ with an estimated 230±40 times higher affinity than citrate.
# [3] = Ascorbate reduction challenge (UV-vis); format: physicochemical; details: 0.1 mM Fe-BBG, 0.1 mM sodium ascorbate, pH 7.4
# apo-transferrin = apo-transferrin (Homo sapiens, UniProt P02787); assay: Fe delivery to apo-transferrin (fluorescence quenching, urea gel electrophoresis); format: biochemical
# Experimental: Incubation with FPC was positive control, the stable compound Fe-PyC3A was negative control (Conditions: 50 mM HEPES buffer supplemented with 25 mM bicarbonate, pH 7.4, 37° C.).
# Transfer of Fe from Fe-BBG to apo-transferrin can be monitored through quenching of the apo-transferrin intrinsic fluorescence.
# Transfer of Fe from Fe-BBG to apo-transferrin can also be monitored using urea gel electrophoresis.
# apo-transferrin, sequence (P02787 20-698): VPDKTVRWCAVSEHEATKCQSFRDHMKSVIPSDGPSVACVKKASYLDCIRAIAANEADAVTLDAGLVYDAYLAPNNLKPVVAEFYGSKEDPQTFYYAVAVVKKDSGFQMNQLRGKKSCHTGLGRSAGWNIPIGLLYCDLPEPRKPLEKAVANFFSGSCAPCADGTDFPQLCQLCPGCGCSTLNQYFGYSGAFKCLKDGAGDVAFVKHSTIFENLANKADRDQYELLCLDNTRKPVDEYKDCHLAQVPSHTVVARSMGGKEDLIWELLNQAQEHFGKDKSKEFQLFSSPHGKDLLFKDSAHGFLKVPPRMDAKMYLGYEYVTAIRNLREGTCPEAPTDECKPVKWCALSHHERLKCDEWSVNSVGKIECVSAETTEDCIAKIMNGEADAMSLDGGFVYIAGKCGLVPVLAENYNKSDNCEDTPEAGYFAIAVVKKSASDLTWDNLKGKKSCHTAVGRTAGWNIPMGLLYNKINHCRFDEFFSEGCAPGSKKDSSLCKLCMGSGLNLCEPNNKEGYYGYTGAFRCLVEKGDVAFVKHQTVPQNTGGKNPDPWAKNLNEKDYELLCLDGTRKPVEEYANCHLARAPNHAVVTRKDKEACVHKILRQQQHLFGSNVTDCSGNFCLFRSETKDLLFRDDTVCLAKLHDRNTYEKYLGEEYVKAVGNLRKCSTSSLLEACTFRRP
structure (smiles),measurement,setting,value
O.O.O=C([O-])CC[C@H]1C(=O)[O][Fe]2[O]c3ccccc3CN1Cc1ccccc1[O]2 [Fe-BBG],conditional pH 7.4 stability constant log KFeL PH 7.4,[1],19.51
same,oxidative stress,"Tmprss6 knockout mice; from Hmox1, Gclc, NqoI taken together",did not result in oxidative stress
same,Serum amyloid A1 (SaaI) expression,"Tmprss6 knockout mice; qPCR, marker of inflammation, repeat dosing",unchanged
same,liver NAD (P) H quinone dehydrogenase 1 (NqoI) expression,"Tmprss6 knockout mice; qPCR, repeat dosing",did not trigger upregulation
same,liver glutamate-cysteine ligase catalytic subunit (Gclc) expression,"Tmprss6 knockout mice; qPCR, repeat dosing",did not trigger upregulation
same,liver heme oxygenase 1 (Hmox1) expression,"Tmprss6 knockout mice; qPCR, repeat dosing",did not trigger upregulation
same,clinical chemistry parameters,"Tmprss6 knockout mice; repeat dosing, vs placebo",did not generate significant differences
same,stability against trans-chelation by endogenous chelators,[2],stable against trans-chelation reactions
same,Kcomp for challenge with citrate,"[2]; 0-10 molar equivalents citrate, absorbance at 465 nm, pH 7.4",0.006±0.002
same,UV-vis traces in presence of competing chelators,"[2]; 0.1 mM Fe-BBG, up to 100 molar equivalents bicarbonate, acetate, lactate, phosphate, pH 7.4 50 mM HEPES",remain unchanged
same,462 nm absorption peak upon challenge with ascorbate,[3],remains unchanged
same,Fe^3+ transfer to apo-transferrin,"apo-transferrin; 50 mM HEPES, 25 mM bicarbonate, pH 7.4, 37° C.",stoichiometric transfer
same,Fe^3+ transferred to apo-transferrin,"apo-transferrin; urea gel, 10 μM apo-transferrin, 0-10 equiv Fe-BBG",2 molar equivalents
